Experiments:
Format in all cases: ADME, organism-based
Conditions in all cases: in vivo
[1] = Drug level in Sprague-Dawley rat urine treated with 3FDT at 40 mg/kg, iv administered as single dose after 24 hrs by HPLC-TIC chromatography
Plasma = experiment: Drug level in Sprague-Dawley rat plasma treated with 3FDT at 40 mg/kg, iv administered as single dose after 4 to 24 hrs by HPLC-TIC chromatography
[2] = Drug level in Sprague-Dawley rat feces treated with 3FDT at 40 mg/kg, iv administered as single dose after 24 hrs by HPLC-TIC chromatography

Measured: Drug metabolism

CC(=O)O[C@@]12CO[C@@H]1C[C@@H](O)[C@@]1(C)C(=O)[C@H](O)C3=C(C)[C@@H](OC(=O)[C@H](O)[C@@H](NC(=O)OC(C)(C)C(F)(F)F)c4ccccc4)C[C@@](O)([C@@H](OC(=O)c4ccccc4)C12)C3(C)C (stereo partly drawn)
metabolite_detected: all assays above
